Measurements taken from US8710233B2 (Gruenenthal GmbH, priority 2005, dated 2014).
Where two headings read alike, the source gives them in different places.

Legend:
[1] = molecular target: T1, vanilloid receptor 1 (VR1/TRPV1) of the rat species (Rattus norvegicus, UniProt O35433); assay: FLIPR Ca2+ influx assay on rat dorsal root ganglia cells (pharmacological method I); type: cell-based
T1 construct: The spinal column is removed from decapitated rats; from tissue; host or cells: primary cells dissociated from rat dorsal root ganglia
T1 sequence (O35433 whole entry): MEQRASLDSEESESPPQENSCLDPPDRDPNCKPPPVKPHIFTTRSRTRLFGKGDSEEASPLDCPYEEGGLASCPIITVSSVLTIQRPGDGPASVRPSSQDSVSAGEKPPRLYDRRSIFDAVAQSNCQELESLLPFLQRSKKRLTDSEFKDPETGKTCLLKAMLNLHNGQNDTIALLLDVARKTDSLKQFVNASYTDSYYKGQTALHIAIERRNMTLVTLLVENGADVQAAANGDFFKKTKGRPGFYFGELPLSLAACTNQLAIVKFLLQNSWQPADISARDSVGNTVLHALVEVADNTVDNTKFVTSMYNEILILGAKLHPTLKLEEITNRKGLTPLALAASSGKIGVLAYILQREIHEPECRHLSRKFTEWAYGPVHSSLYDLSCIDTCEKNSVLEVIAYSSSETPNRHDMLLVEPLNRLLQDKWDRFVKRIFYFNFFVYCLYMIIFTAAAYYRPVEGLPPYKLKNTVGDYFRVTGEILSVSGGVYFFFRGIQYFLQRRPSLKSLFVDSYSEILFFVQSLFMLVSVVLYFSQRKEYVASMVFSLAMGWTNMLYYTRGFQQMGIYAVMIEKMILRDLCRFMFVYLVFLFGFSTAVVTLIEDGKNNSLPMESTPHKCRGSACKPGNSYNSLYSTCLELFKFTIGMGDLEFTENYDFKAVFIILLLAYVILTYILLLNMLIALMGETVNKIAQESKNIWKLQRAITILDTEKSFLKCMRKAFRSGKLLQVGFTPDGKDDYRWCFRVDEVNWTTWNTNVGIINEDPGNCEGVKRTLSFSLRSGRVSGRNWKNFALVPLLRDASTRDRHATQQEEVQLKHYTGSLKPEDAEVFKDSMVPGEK
Procedure, shortened: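 Primary rat dorsal root ganglion cells loaded with 2 μM Fluo-4, Ca2+ influx read on FLIPR as peak fluorescence. Triplicates, at least 3 independent experiments.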

[2] = molecular target: T2, vanilloid receptor (VR1) (Homo sapiens, UniProt Q8NER1); assay: FLIPR Ca2+ influx assay on CHO K1 cells transfected with the VR1 gene (pharmacological method II); type: cell-based
T2 construct: expressed in transfected cells; host or cells: CHO K1 cells (ECACC), stably transfected
T2 sequence (Q8NER1 whole entry): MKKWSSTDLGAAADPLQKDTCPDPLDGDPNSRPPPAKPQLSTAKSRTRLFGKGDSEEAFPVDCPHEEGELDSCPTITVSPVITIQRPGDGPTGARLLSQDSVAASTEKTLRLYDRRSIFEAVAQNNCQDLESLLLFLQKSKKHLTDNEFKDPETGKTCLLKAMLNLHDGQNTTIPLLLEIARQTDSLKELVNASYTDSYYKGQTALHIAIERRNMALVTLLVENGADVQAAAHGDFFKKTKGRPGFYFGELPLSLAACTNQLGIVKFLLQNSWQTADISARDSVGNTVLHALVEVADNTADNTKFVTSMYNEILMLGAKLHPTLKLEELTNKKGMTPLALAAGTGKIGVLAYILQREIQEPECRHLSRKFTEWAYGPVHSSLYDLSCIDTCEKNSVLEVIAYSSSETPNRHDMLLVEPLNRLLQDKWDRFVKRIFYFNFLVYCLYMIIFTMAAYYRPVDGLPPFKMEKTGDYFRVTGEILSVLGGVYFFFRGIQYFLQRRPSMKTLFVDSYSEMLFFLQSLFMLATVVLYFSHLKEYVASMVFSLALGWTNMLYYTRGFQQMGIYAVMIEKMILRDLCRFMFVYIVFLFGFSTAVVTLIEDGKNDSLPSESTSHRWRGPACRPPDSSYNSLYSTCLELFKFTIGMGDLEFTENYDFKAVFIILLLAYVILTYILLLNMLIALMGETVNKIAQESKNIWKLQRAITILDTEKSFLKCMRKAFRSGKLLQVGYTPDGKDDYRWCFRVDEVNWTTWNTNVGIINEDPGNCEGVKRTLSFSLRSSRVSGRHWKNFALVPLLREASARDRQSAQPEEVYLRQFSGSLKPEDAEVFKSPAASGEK

[3] = system: formaldehyde induced nociceptive behaviour; assay: Formaldehyde test in mice, second (late) phase; type: in vivo, mouse; settings: for inhibition in vivo at 1 mg/kg / inhibition in vivo at 0.3 mg/kg: read-out: inhibition formaldehyde test (n = 10); for inhibition in vivo at 0.3 mg/kg: 0.3 mg/kg body weight po
[4] = system: capsaicin induced hypothermie; assay: Hypothermie assay in the mouse (capsaicin induced hypothermie); type: in vivo; settings: read-out: inhibition hypothermie (n = 5); for inhibition in vivo at 0.3 mg/kg: 0.3 mg/kg body weight po
Description: V. Hypothermie Assay an der Maus
Male NMRI mice (weight 25-35 gram, supplier IFFA CREDO, Bruxelles, Belgium) are used in the hypothermie assay. The animals are kept under standardized conditions: light/darkness interval (6:00 to 18:00 light; 18:00 to 6:00 Uhr darkness), room temperature 19-22° C., relative humidity 35-70%, 15 times per hour change of compartment air, airflow <0.2 m/sec. The animals were fed on a standardized diet (ssniff diet, ssniff Spezialdiäten GmbH, Soest, Germany) and tap water. Water and diet were detracted during the experiment. All animals were used once in the experiment. The animals were allowed to adapt to the experimental conditions for at least 5 days.
The acute application of capsaicin (VR-1 agonist) leads to a decrease of the core body temperature in rat and mice via stimulation of heat sensors. Only compounds which act as specific VR-1-receptor antagonists can antagonize the capsaicin induced hypothermie. In contrast, morphine induced hypothermie is not antagonized by VR-1 antagonists. Thus, this experiment is suitable for the determination of compounds that act as VR1-antagonists via their effect on the core body temperature.
For the determination of the core body temperature a digital thermometer was used (Thermalert TH-5, physitemp, Clifton N.J., USA). The measuring head was inserted into the rectum.
The individual basis value is determined by measuring the body temperature twice in an interval of about half an hour. […] […] The test compound is given 10 min (i.v.) or 15 min (p.o.), respectively, before application of capsaicin. The body temperature is determined 7.5/15 and 30 min after application of capsaicin (i.v.+i.p.) or 15/30/60/90/120 min after application of capsaicin (p.o.+i.p.), respectively. In addition, another group of mice is only given the test compound or a vehicle control.
The measuring points are given as average values±S.E.M. of the absolute values. The antagonistic effect is given in percent of inhibition of capsaicin induced hypothermie.

[5] = molecular target: VR1/TRPV1 receptor (Homo sapiens, UniProt Q8NER1); assay: IC50 (human) after pH stimulus; type: cell-based
VR1/TRPV1 receptor, sequence (Q8NER1 whole entry): as above

With `CC(C(=O)NCc1ccc(C(F)(F)F)nc1N1CCC(N2CCCC2)CC1)c1ccc(NS(C)(=O)=O)c(F)c1` (stereo not shown) [Compound 165] the inhibition at 10 µM ([1]; @ 10 μM, read-out: inhibition in percent, Ki (rat) Cap.) was 4%, the inhibition at 10 µM ([2]; CHO-K1, @ 10 μM, read-out: inhibition in percent, Ki (human) Cap.) was 0.5% and the inhibition in vivo at 1 mg/kg ([3]; 1 mg/kg body weight po, mouse) was 15%.
For `CC(C(=O)NCc1ccc(C(F)(F)F)nc1OCc1ccncc1)c1ccc(NS(C)(=O)=O)c(F)c1` (stereo not shown) [Compound 177], the inhibition at 0.1 µM ([1]; read-out: inhibition in percent, Ki (rat) Cap.) was 9% and the inhibition in vivo at 1 mg/kg ([3]; 1 mg/kg body weight po, mouse) was 24%.
`CC(C(=S)NCc1ccc(C(F)(F)F)nc1N1CCCC1)c1ccc(NS(C)(=O)=O)c(F)c1` (stereo not shown) [Compound 129] gave an inhibition in vivo at 1 mg/kg ([3]; 1 mg/kg body weight po, mouse) of 3%.
`CC(C(=O)NCc1ccc(C(F)(F)F)nc1N1CCC(c2ccccc2)(N(C)C)CC1)c1ccc(NS(C)(=O)=O)c(F)c1` (stereo not shown) [Example 330, N-(4-dimethylamino-4-phenyl-6′-trifluoromethyl-3,4,5,6-tetrahydro-2H-[1,2′]bipyridinyl-3′-ylmethyl)-2-(3-fluoro-4-methylsulfonamido-phenyl)-propionamide] showed an inhibition in vivo at 1 mg/kg ([4]; Mus musculus, po) of 7% and an inhibition in vivo at 1 mg/kg ([3]; Mus musculus, po) of 54%.
With `CCCCN(C)c1nc(C(F)(F)F)ccc1CNC(=O)C(C)c1ccc(NS(C)(=O)=O)c(F)c1` (stereo not shown) [Compound 167] the inhibition in vivo at 0.3 mg/kg ([3]; mouse) was 56%.
`CC(C(=O)NCc1ccc(C(F)(F)Cl)nc1OC1CCCC1)c1ccc(NS(C)(=O)=O)c(F)c1` (stereo not shown) [Compound 166] gave an inhibition in vivo at 1 mg/kg ([3]; 1 mg/kg body weight po, mouse) of 72%.
For `CC(C(=O)NCc1ccc(C(F)(F)F)cc1N1CCCCCCC1)c1ccc(NS(C)(=O)=O)c(F)c1` (stereo not shown) [Compound 217], the inhibition in vivo at 0.3 mg/kg ([4]; mouse) was 97% and the inhibition in vivo at 1 mg/kg ([3]; 1 mg/kg body weight po, mouse) was 37%.
Compound `CC(C(=O)NCc1ccc(C(F)(F)F)nc1OC1CCCCC1)c1ccc(NS(C)(=O)=O)c(F)c1` (stereo not shown) [Example 76] has a Ki ([1]; Ki (rat), Table 2, displacement of capsaicin (100 nM), Cheng-Prusoff) of 1.5 nM, an IC50 ([5]; Table 2) of 43.4 nM and a Ki ([2]; Table 2, displacement of capsaicin (100 nM), Cheng-Prusoff, read-out: Ki (human)) of 1.3 nM. For the same compound, the inhibition in vivo at 0.3 mg/kg ([3]; mouse) was 12%.
For `CC(C(=O)NCc1ccc(C(F)(F)F)cc1N1CCCC1)c1ccc(NS(C)(=O)=O)c(F)c1` (stereo not shown) [Compound 34], the inhibition in vivo at 0.3 mg/kg ([3]; mouse) was 51%.
With `COC1CCN(c2nc(C(F)(F)F)ccc2CNC(=O)C(C)c2ccc(NS(C)(=O)=O)c(F)c2)CC1` (stereo not shown) [Compound 159] the inhibition in vivo at 1 mg/kg ([3]; 1 mg/kg body weight po, mouse) was 14%.
`CCCCOc1nc(C(F)(F)Cl)ccc1CNC(=O)C(C)c1ccc(NS(C)(=O)=O)c(F)c1` (stereo not shown) [Example 140, N-[2-butoxy-6-(chlor-difluor-methyl)-pyridin-3-ylmethyl]-2-(3-fluoro-4-methylsulfonamido-phenyl)-propionamide] gave a Ki ([1]; table 4, capsaicin, read-out: Ki (rat) Cap.) of 0.4 nM, an IC50 ([5]; table 4) of 9.2 nM and a Ki ([2]; table 4, capsaicin, read-out: Ki (human) Cap.) of 0.7 nM. For the same compound, the “inhibition formaldehyde test (n = 10)” value ([3]; 0.1 mg/kg body weight po, mouse) was 0.1 po 56%.
`CCC1CCC(Oc2nc(C(F)(F)F)ccc2CNC(=O)C(C)c2ccc(NS(C)(=O)=O)c(F)c2)CC1` (stereo not shown) [Compound 171] gave an inhibition in vivo at 1 mg/kg ([3]; 1 mg/kg body weight po, mouse) of 46%.
In the case of `CC(C(=O)NCc1ccc(C(F)(F)F)nc1NC1CCCCC1)c1ccc(NS(C)(=O)=O)c(F)c1` (stereo not shown) [Compound 90], the inhibition in vivo at 1 mg/kg ([3]; 1 mg/kg body weight po, mouse) is reported as 37%.
Compound `CC(C(=O)NCc1ccc(C(F)(F)F)nc1N1CCCC1)c1ccc(NS(C)(=O)=O)c(Br)c1` (stereo not shown) [Compound 103] has an inhibition in vivo at 1 mg/kg ([3]; 1 mg/kg body weight po, mouse) of 50%.
`CC(C(=O)NCc1ccc(C(F)(F)F)nc1OCCC(C)(C)C)c1ccc(NS(C)(=O)=O)c(F)c1` (stereo not shown) [Compound 125] was tested, and the inhibition in vivo at 0.3 mg/kg ([4]; mouse) was 37%, the inhibition in vivo at 1 mg/kg ([4]; 1 mg/kg body weight po, mouse) was 32% and the inhibition in vivo at 3 mg/kg ([4]; 3 mg/kg body weight po, mouse) was 65%. The inhibition in vivo at 1 mg/kg ([3]; 1 mg/kg body weight po, mouse) was 19%.
`CCCCOC1CCN(c2nc(C(F)(F)F)ccc2CNC(=O)C(C)c2ccc(NS(C)(=O)=O)c(F)c2)CC1` (stereo not shown) [Compound 160] was tested, and the inhibition in vivo at 1 mg/kg ([3]; 1 mg/kg body weight po, mouse) was 14%.
Work on `CC(C(=O)NCc1ccc(C(F)(F)F)nc1-c1ccc(C(C)(C)C)cc1)c1ccc(NS(C)(=O)=O)c(F)c1` (stereo not shown) [Compound 117] yielded an inhibition in vivo at 1 mg/kg ([3]; 1 mg/kg body weight po, mouse) of 41%.
